Reference: patent US20260216215A1, “COMPOSITIONS AND METHODS FOR TREATING OR PREVENTING PAIN OR OTHER DISORDERS” (priority 2022, published 2026)

How the values were obtained:
[1] = cited from earlier work
chemical nociception = conditions: not blocked by naloxone; cited from earlier work
menstrual pain = experiment: Comparison of VAS scores for CBD only, CBG only, PEA only and combination vaginal suppositories (Example 2); type: in vivo, human; conditions: vaginal suppository; for Magnitude of pain reduction from baseline: VAS points
From the text: Specifically, the formulations were individually/separately administered, with each single formulation being administered on a separate day of the patient's menstrual period.
Comparison of visual analogue pain scores (VAS scores) for CBD only, CBG only, PEA only and CBD+CBG+PEA combinations delivered using vaginal suppositories.

[2] = tested on: inflammation in experimental rat model; conditions: versus Diclofenac (100 mg/kg), p<0.05; cited from earlier work
neuropathic pain = conditions: purified compound; thermal and mechanical hyperalgesia and mechanical allodynia; cited from earlier work

CC(C)=C1CC[C@@H](C)CC1=O [PUL, (R)-5-Methyl-2-(1-methylethylidine) cyclohexanone]
Miscibility with organic solvents ([1]; ethanol, diethyl ether and chloroform): miscible
Solubility in water ([1]; water): practically insolubile
Chemical nociception in first and second phase of the formalin test (chemical nociception): significantly inhibited

CCCCCc1cc(O)c(C/C=C(\C)CCC=C(C)C)c(O)c1 [CBG 50 mg, Cannabigerol]
Magnitude of pain reduction from baseline (menstrual pain): 0
VAS at max effect (menstrual pain): 8

COc1cc(CNC(=O)CCCC/C=C/C(C)C)ccc1O [CPF, capsaicin]
Anti-inflammatory effects [2]: comparable to diclofenac

C=C(C)[C@@H]1CCC(C)=C[C@H]1c1c(O)cc(CCCCC)cc1O [CBD 50 mg, Cannabidiol]
Relief of neuropathic pain (neuropathic pain): partially relieve neuropathic pain
Magnitude of pain reduction from baseline (menstrual pain): 2
Duration of effect (menstrual pain): 5 h
Onset of effect (menstrual pain): 20 min
VAS at max effect (menstrual pain): 5

CCCCCCCCCCCCCCCC(=O)NCCO [PEA 250 mg, N-Palmitoylethanolamide]
Magnitude of pain reduction from baseline (menstrual pain): 2
Duration of effect (menstrual pain): 6 h
Onset of effect (menstrual pain): 30 min
VAS at max effect (menstrual pain): 5
